This passage reports inhibition and IC50 results from US5504244A, “Alkylarylketo acids” (Boehringer Ingelheim Pharmaceuticals, Inc., priority 1993, dated 1996).

Assay [1] relates to 5-HETE biosynthesized by glycogen-stimulated polymorphonuclear leucocytes (PMNs). The assay can be described thus: Hydroxyacid Profile Assay (HPA): inhibition of 5-HETE synthesis in glycogen-elicited rabbit PMNs. Conditions: Oryctolagus cuniculus, Leucocyte; for inhibition at 100 µM: 5-HETE synthesis, read-out: Percent Inhibition (100 μM); for IC50: read-out: IC50 (50% inhibition of 5-HETE synthesis). It counts as cell-based. The protocol: As previously noted 5-HETE biosynthesis serves as a marker for arachidonic acid metabolism via the 5-lipoxygenase pathway which produces (poly)hydroxyeicosatetraenoic acids and the potent bronchoconstrictor and vasoactive leukotrienes LTC4, LTD4 and LTE4.
Buffer A (8.70 g NaCl; 0.27 g KCl; 0.42 g Na2 HPO4; 0.76 g KH2 PO4; and 1.00 g dextrose per liter H2 O; pH 7.0) (0.325 ml) is introduced into each of a battery of screwtop culture tubes. Then, a solution of a compound (0.100 ml) to be assayed is dispensed into individual tubes. Assays are performed in duplicate at 100 μM and 10 μM concentrations. Control tubes receive Buffer A (0 100 ml) in lieu of compound. Next, rabbit PMNs (2×10^7 cells/tube; 4×10^7cells/ml) (0.500 ml) are added to each tube. The rabbit PMN's used are elicited with glycogen and made into a preparation substantially as described by F. Hirata. et al (1979) Proc. Natl. Acad. Sci. USA, 76, 2640-2643. The tubes are vortexed and preincubated in a shaking 37° C. water bath for 15 minutes.
Thereafter, the tubes are removed from the water bath and calcium ionophore solution (400 μg/ml A-23187; Sigma Chemical Co., St. Louis, Mo.) (0.025 ml), ^14 C-arachidonic acid (0.25 μCi in 0.025 ethanol; New England Nuclear Products, Boston, Mass.) (0.025 ml) and calcium chloride solution (CaCl2.2H2 O ); 105.8 mg/10 […]) (0.025 ml) are added in that order. The tubes are vortexed and returned to the water bath for 30 minutes. The reaction is then terminated by the addition of HCl (0.8N, 0.025 ml).
Extraction and concentration of ^14 C-labeled 5-HETE is performed as follows. First, solution containing 2 parts ethyl acetate, 3 parts CH2 Cl2 and 0.01 ml unlabeled arachidonic acid is added (5.01 ml) to each tube. The tubes are capped and briefly vortexed. The contents of each tube is poured into a polypropylene column fitted with a porous polyethylene disc and Whatman phase separation filter paper. The organic phase is collected by gravity filtration into a conical centrifuge tube, While the aqueous phase is retained in the column by the phase separation paper. Each culture tube is rinsed once with the EtOAc:CH2 Cl2 solution (1.0 ml) and the wash added to the column. The organic phase is concentrated to (0.5 ml) using a Savant Speed Vac concentrator (Savant Instruments, Inc., Hicksville, N.Y.).
After concentration of the organic phase, the tubes are vortexed and stored covered on ice. An aliquot (0.01 ml) is then removed for liquid scintillation counting in a Beckman LS7500 Liquid Scintillation Counter (Beckman Instruments Corp., Fullerton, Calif.). Based on the count, the number of μl containing 1×10^5 cpm is calculated. This volume is applied to a silica gel covered glass plate in a 10 mm streak. The remaining fluid in the tube is measured via syringe and noted.
The TLC plate is placed in a chromatography chamber containing the following solvent system: CHCl3 :MeOH:HOAc:H2 O (v/v;90: 9:1:0.65). The plate is then air dried and counted on a Berthold Linear TLC Analyzer (Berthold Instruments, Inc., Pittsburgh, Pa.) for 30 minutes per lane if a dose response curve had been run, or for 5 min per lane if drug screening had been done. The integrated area of the 5-HETE band for each compound is converted to percent of control and analyzed. The percent inhibition at 100 μM compound concentration and the concentration (μM) which produces a 50% inhibition of 5-HETE synthesis (IC50), are determined for those compounds described in Examples 1-36, and are reported in Table 1 .

In a further assay the test system is guinea pig ileal strips. The assay can be described thus: Modified Schultz-Dale Assay: inhibition of antigen-induced anaphylactic contraction of passively sensitized ileal strips. It counts as cell-based. The note with it: Cavia porcellus; for IC50: value in parentheses. On the procedure: In the classic Schultz-Dale assay, guinea pigs are sensitized with a known immunogen or passively sensitized with guinea pig antiserum to the immunogen, strips of ilea are recovered, and the extent of their contraction in response to a challenge exposure to the same antigen is observed as a measure of anaphylactic response. The experiments described here follow this same procedure while exposing the ileal strips to test compound before exposure to antigen challenge (preincubation) and, in some strips, also after antigen challenge (postincubation).
The male Hartley strain guinea pigs (450-650 g) whose ilea are used in this Schultz-Dale assay are passively sensitized with IgE antiovalbumin antiserum as follows. The antiserum is developed in another group of similar guinea pigs as described in Graziano, et al., J. Immunol. 127:1067-1070 (1981) and pooled. The test animals are then each passively sensitized by subcutaneous injection of the pooled antiserum (1 ml).
About 2-7 days after sensitization, the guinea pigs are sacrificed and the terminal ilea are removed. They are cut into strips (6 cm) and positioned in tissue baths (5 ml) of Tyrode's solution with atropine (1 μg/ml) at 37° C. One end of each strip is fixed to an immobile post and the other movably mounted to a Grass Ft. 0.03 linear force displacement transducer and a Grass Model 7 polygraph. The tension is set (at 1 gram) and the tissue is allowed to equilibrate (10 minutes). Tissue viability is tested by establishing a consistent response to histamine (0.5 μg/ml). After several histamine-induced contractions, mepyramine (1 μg/ml) is added to inhibit any contractions due to the anaphylactic release of endogenous histamine.
A minimum of 3 animals are used for each compound tested and, of the 6 strips from each animal, 2 strips are incubated (preincubation) with a test compound (final concentration 75 μM), 2 with an appropriate reference standard (BW-755C at 75 μM) and 2 with saline solution (control) for a predetermined period (5 minutes). After this initial incubation period, ovalbumin (100 μg/ml) is added to each bath and the resulting anaphylactic contraction measured. The data are recorded as of tension produced by the tissue in excess of the 1 gram tension that was initially set. At the peak of the contraction, a dose of the same test compound (75 μM) is added (postincubation) to one control strip and reference standard (FPL-55712 at 1.9 μM). The strips are monitored (1 minute) and any effect on the established contraction is recorded as described above.
Two types of data are derived from the above protocol. First, pre-antigen inhibition (prechallenge) is expressed as the percent inhibition in each of the strips preincubated with test compound measured against the averaged contractions of the two control strips. Prechallenge inhibition by the reference standard is also determined in each experiment as a positive control. The reference used consistently gives 60-80% inhibition. Second, post-antigen inhibition (postchallenge) is determined by measuring the decrease in anaphylactic contraction of a control strip produced by adding either a test compound or standard at the peak of the contraction. The reference used consistently gives 70-90% inhibition. The data in each experiment, therefore, consists of 2 prechallenge and 1 postchallenge value for both test compound and standard.

Where [2] appears, read: added at peak of contraction after antigen, read-out: Postchallenge mean percent inhibition.
The mark [3] stands for this setting: preincubation before ovalbumin antigen, read-out: Prechallenge mean percent inhibition.
Setting [4] is: added at peak of contraction after antigen, read-out: Postchallenge IC50.
[5] abbreviates: preincubation before ovalbumin antigen, read-out: Prechallenge IC50.

Read-outs that look alike come from different tables or passages of the source. Some results are limits rather than exact numbers.

In general, inhibition refers to the drop in the measured response relative to a control, in per cent. By IC50 is commonly meant the point on the concentration scale where inhibition reaches its midpoint. With `CCCCCCCc1ccc(C(=O)[C@@H]2CCCC[C@H]2C(=O)O)cc1` (relative stereo) [Example 23, Trans-2-(4-heptylbenzoyl)cyclohexane-1-carboxylic acid], the inhibition at 100 µM in assay [1] turned out to be 70%. Further, the IC50 is 5 µM in assay [1], above 25 µM with guinea pig ileal strips (setting [4]) and 14 µM with guinea pig ileal strips (setting [5]). Moreover, the inhibition at 75 µM is 76% with guinea pig ileal strips (setting [2]) and 100% with guinea pig ileal strips (setting [3]).

As to `CCCCCCCCCc1ccc(C(=O)[C@@H]2CCCC[C@H]2C(=O)O)cc1` (relative stereo) [Example 32, Trans-2-(4-n-nonylbenzoyl)cyclohexane-l-carboxylic acid], the inhibition at 100 µM in assay [1] came out at 85%. For the same compound, the inhibition at 75 µM is 20% in the assay with guinea pig ileal strips (setting [2]) and 92% in the assay on guinea pig ileal strips (setting [3]).

As for `NC1=NN(c2cccc(C(F)(F)F)c2)CC1` [BW-755C, reference compound], the inhibition at 75 µM in the assay on guinea pig ileal strips (positive control, preincubation, read-out: Prechallenge inhibition by the reference standard) was 60 to 80%.

For the compound `CCCCCCc1ccc(C(=O)CCCCC(=O)O)cc1` [Example 5, 5-(4-n-Hexylbenzoyl)pentanoic acid], in assay [1], the inhibition at 100 µM was determined as 47%. Further, the inhibition at 75 µM in the assay with guinea pig ileal strips (setting [2]) stood at 58%; in the assay with guinea pig ileal strips (setting [3]), 65%.

Turning to `CCCCCCCCc1ccc(C(=O)CCCCC(=O)O)cc1` [Example 6, 5-(4-n-Octylbenzoyl)pentanoic acid], in assay [1], the inhibition at 100 µM came out at 77%. Besides, the inhibition at 75 µM with guinea pig ileal strips (setting [2]) worked out at 0%; with guinea pig ileal strips (setting [3]), 63%.

Take `CCCCCCCc1ccc(C(=O)CCCCC(=O)O)cc1[N+](=O)[O-]` [Example 7, 5-(3-Nitro-4-n-heptylbenzoyl)pentanoic acid]: in assay [1], the inhibition at 100 µM stood at 84%. The inhibition at 75 µM with guinea pig ileal strips (setting [2]) worked out at 28%; in the assay with guinea pig ileal strips (setting [3]), 96%. In addition, the IC50 was above 75 µM in the assay on guinea pig ileal strips (setting [4]) and 14 µM in the assay with guinea pig ileal strips (setting [5]).

For `CCCCCCCc1ccc(C(=O)CCCCC(=O)O)cc1N` [Example 8, 5-(3-Amino-4-n-heptylbenzoyl)pentanoic acid], the inhibition at 100 µM in assay [1] amounted to 47%. Also, the values for the inhibition at 75 µM in the assay with guinea pig ileal strips (setting [2]) and in the assay with guinea pig ileal strips (setting [3]) were 48% and 94%, respectively. Also, the results for the IC50 with guinea pig ileal strips (setting [4]) and in the assay on guinea pig ileal strips (setting [5]) were above 75 µM and 37 µM, respectively.

`CCCCCCOc1ccccc1C(=O)CCCCC(=O)O` [Example 13, 5-(2-n-Hexyloxybenzoyl)pentanoic acid]: in assay [1], the inhibition at 100 µM came out at 64%. Besides, the inhibition at 75 µM with guinea pig ileal strips (setting [2]) stood at 43%; with guinea pig ileal strips (setting [3]), 87%. Further, the figures for the IC50 with guinea pig ileal strips (setting [4]) and in the assay with guinea pig ileal strips (setting [5]) were 45 µM and 15 µM, respectively.

With `CCCCCc1ccc(C(=O)Cc2cccc(C(=O)O)c2)cc1` [Example 15, 3-(4-pentylphenacyl)benzoic acid], the inhibition at 100 µM in assay [1] was 78%. For the same compound, the inhibition at 75 µM with guinea pig ileal strips (setting [2]) stood at 13%; in the assay with guinea pig ileal strips (setting [3]) it was 81%. The IC50 is above 75 µM in the assay with guinea pig ileal strips (setting [4]) and 27 µM with guinea pig ileal strips (setting [5]).

For the compound `CCCCCCCc1ccc(C(=O)c2cccc(C(=O)O)c2)cc1` [Example 16, 3-(4-n-heptylbenzoyl)benzoic acid], the inhibition at 100 µM in assay [1] worked out at 75%. Further, the IC50 in assay [1] was 4 µM; in the assay on guinea pig ileal strips (setting [4]), 57 µM; in the assay with guinea pig ileal strips (setting [5]) it was 12 µM. Also, the inhibition at 75 µM with guinea pig ileal strips (setting [2]) came out at 63%; with guinea pig ileal strips (setting [3]), 86%.

In the case of `CCCCCCCc1ccc(C(=O)Cc2ccccc2C(=O)O)cc1` [Example 17, 2-(4-n-Heptylphenacyl)benzoic acid], in assay [1], the inhibition at 100 µM came to 80%. Besides, the inhibition at 75 µM turned out to be 100% in the assay on guinea pig ileal strips (setting [2]) and 90% in the assay with guinea pig ileal strips (setting [3]). Also, the values for the IC50 in the assay on guinea pig ileal strips (setting [4]) and in the assay with guinea pig ileal strips (setting [5]) were 33 µM and 10 µM, respectively.

As to `CCCCCCCc1ccc(C(=O)Cc2cccc(C(=O)O)c2)cc1` [Example 18, 3-(4-n-Heptylphenacyl)benzoic acid], the inhibition at 100 µM in assay [1] was 73%. Further, the inhibition at 75 µM in the assay on guinea pig ileal strips (setting [2]) worked out at 70%; in the assay on guinea pig ileal strips (setting [3]), 97%. Further, the IC50 in the assay with guinea pig ileal strips (setting [4]) worked out at 51 µM; in the assay on guinea pig ileal strips (setting [5]) it was 10 µM.

Take `CCCCOc1ccc(C(=O)c2cccc(C(=O)O)c2)c(O)c1` [Example 26, 3-(4-Butoxy-2-hydroxybenzoyl)benzoic acid]: the inhibition at 75 µM in the assay with guinea pig ileal strips (setting [2]) worked out at 59%; in the assay on guinea pig ileal strips (setting [3]), 85%.

Regarding `CCCCOc1cc(OC)ccc1C(=O)c1cccc(C(=O)O)c1` [Example 28, 3-(2-Butoxy-4-methoxybenzoyl)benzoic acid], the inhibition at 75 µM in the assay with guinea pig ileal strips (setting [2]) worked out at 35%; in the assay on guinea pig ileal strips (setting [3]), 61%.

With `CCCCCCOc1cc(C)ccc1C(=O)c1cccc(C(=O)O)c1` [Example 31, 3-(2-n-Hexyloxy-4-methylbenzoyl)-benzoic acid], the inhibition at 75 µM was 59% in the assay with guinea pig ileal strips (setting [2]) and 81% with guinea pig ileal strips (setting [3]). Also, the IC50 is above 75 µM in the assay with guinea pig ileal strips (setting [4]) and 44 µM with guinea pig ileal strips (setting [5]).

Consider `CCCCCCCc1ccc(C(=O)c2cccc(-c3nn[nH]n3)c2)cc1` [Example 36, 5-3-(4-n-Heptylbenzoyl)phenyl!tetrazole], for which the inhibition at 75 µM is 14% in the assay with guinea pig ileal strips (setting [2]) and 85% with guinea pig ileal strips (setting [3]). Besides, the half-inhibitory concentration (IC50) is above 75 µM in the assay on guinea pig ileal strips (setting [4]) and 7 µM with guinea pig ileal strips (setting [5]).

With `CCCc1c(OCC(O)COc2ccc3c(=O)cc(C(=O)O)oc3c2CCC)ccc(C(C)=O)c1O` (centres unmarked) [FPL-55712, reference compound], the inhibition at 1.9 µM in the assay with guinea pig ileal strips (1.9 μM, positive control, added at peak of contraction, read-out: Postchallenge inhibition by the reference standard) was 70 to 90%.
